From patent US20140256756A1, “PIPERIDINYL-SUBSTITUTED LACTAMS AS GPR119 MODULATORS” (Array BioPharma Inc., priority 2011, published 2014)

Test system: modified version of the GPR119 receptor (94% identity to human receptor)
Test: cAMP production assay (LANCE cAMP kit, TR-FRET) in HEK-293 cells
Type: cell-based
Details: for cAMP production in HEK-293 cells: HEK-293 cells stably expressing modified GPR119, test compounds 0.2 nM to 10 μM, one-hour incubation; for Fold over baseline: increase in cAMP relative to basal levels, agonist activity if 1.5-fold or greater
Summary of the method: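 Doxycycline-induced HEK-293 cells expressing modified GPR119 exposed to compounds (0.2 nM to 10 μM, 0.5% DMSO) for one hour at ambient temperature in HBSS with HEPES and BSA. cAMP measured by TR-FRET competition and interpolated from a standard curve; agonism defined as ≥1.5-fold over basal.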

SMILES | cAMP production in HEK-293 cells [nmol] | Fold over baseline
CC(C)c1nsc(N2CCC(N3CCC(Oc4ccc(C#N)cc4F)C3=O)CC2)n1 (stereo not shown) [Example 63, 3-Fluoro-4-(1-(1-(3-isopropyl-1,2,4-thiadiazol-5-yl)piperidin-4-yl)-2-oxopyrrolidin-3-yloxy)benzonitrile] | 7.4 | 2.7
Cc1cc(O[C@H]2CCN(C3CCN(c4nc(C(C)C)ns4)CC3)C2=O)c(F)cc1C#N [Example 64, (S)-5-fluoro-4-(1-(1-(3-isopropyl-1,2,4-thiadiazol-5-yl)piperidin-4-yl)-2-oxopyrrolidin-3-yloxy)-2-methylbenzonitrile] | 30.8 | 3.5
CC(C)c1nsc(N2CCC(N3CCC(Oc4ccc(S(C)(=O)=O)cc4)C3=O)CC2)n1 (stereo not shown) [Example 65, -(1-(3-Isopropyl-1,2,4-thiadiazol-5-yl)piperidin-4-yl)-3-(4-(methylsulfonyl)phenoxy)pyrrolidin-2-one] | 22.1 | 4.1
CCS(=O)(=O)c1ccc(OC2CCN(C3CCN(c4nc(C)ns4)CC3)C2=O)c(F)c1 (stereo not shown) [Example 66, 3-(4-(ethylsulfonyl)-2-fluorophenoxy)-1-(1-(3-methyl-1,2,4-thiadiazol-5-yl)piperidin-4-yl)pyrrolidin-2-one] | 8.6 | 1.8
CCS(=O)(=O)c1ccc(OC2CCN(C3CCN(c4nc(-c5ccccc5)ns4)CC3)C2=O)c(F)c1 (stereo not shown) [Example 67, 3-(4-(ethylsulfonyl)-2-fluorophenoxy)-1-(1-(3-phenyl-1,2,4-thiadiazol-5-yl)piperidin-4-yl)pyrrolidin-2-one] | 14.0 | 2.3
CCS(=O)(=O)c1ccc(OC2CCN(C3CCN(c4nc(CC(C)C)ns4)CC3)C2=O)c(F)c1 (stereo not shown) [Example 68, 3-(4-(ethylsulfonyl)-2-fluorophenoxy)-1-(1-(3-isobutyl-1,2,4-thiadiazol-5-yl)piperidin-4-yl)pyrrolidin-2-one] | 14.5 | 3.1
CS(=O)(=O)c1ccc(O[C@H]2CCN(C3CCN(c4nc(Br)ns4)CC3)C2=O)c(F)c1 [Example 69, (S)-1-(1-(3-bromo-1,2,4-thiadiazol-5-yl)piperidin-4-yl)-3-(2-fluoro-4-(methylsulfonyl)phenoxy)pyrrolidin-2-one] | 10.6 | 2.1
CS(=O)(=O)c1ccc(O[C@H]2CCN(C3CCN(c4nc(-c5cnco5)ns4)CC3)C2=O)c(F)c1 [Example 70, (S)-3-(2-fluoro-4-(methylsulfonyl)phenoxy)-1-(1-(3-(oxazol-5-yl)-1,2,4-thiadiazol-5-yl)piperidin-4-yl)pyrrolidin-2-one] | 11.4 | 3.1
Cc1ncccc1-c1nsc(N2CCC(N3CC[C@H](Oc4ccc(S(C)(=O)=O)cc4F)C3=O)CC2)n1 [Example 71, (S)-3-(2-fluoro-4-(methylsulfonyl)phenoxy)-1-(1-(3-(2-methylpyridin-3-yl)-1,2,4-thiadiazol-5-yl)piperidin-4-yl)pyrrolidin-2-one] | 5.9 | 2.1
Cn1nccc1-c1nsc(N2CCC(N3CC[C@H](Oc4ccc(S(C)(=O)=O)cc4F)C3=O)CC2)n1 [Example 72, (S)-3-(2-fluoro-4-(methylsulfonyl)phenoxy)-1-(1-(3-(1-methyl-1H-pyrazol-5-yl)-1,2,4-thiadiazol-5-yl)piperidin-4-yl)pyrrolidin-2-one] | 10.6 | 2.9
Cn1cc(-c2nsc(N3CCC(N4CC[C@H](Oc5ccc(S(C)(=O)=O)cc5F)C4=O)CC3)n2)cn1 [Example 73, (S)-3-(2-fluoro-4-(methylsulfonyl)phenoxy)-1-(1-(3-(1-methyl-1H-pyrazol-4-yl)-1,2,4-thiadiazol-5-yl)piperidin-4-yl)pyrrolidin-2-one] | 6.2 | 2.2
CS(=O)(=O)c1ccc(O[C@H]2CCN(C3CCN(c4nc(Oc5ccccc5)ns4)CC3)C2=O)c(F)c1 [Example 74, (S)-3-(2-fluoro-4-(methylsulfonyl)phenoxy)-1-(1-(3-phenoxy-1,2,4-thiadiazol-5-yl)piperidin-4-yl)pyrrolidin-2-one] | 15.3 | 4.2
Cc1nn(C)c(Oc2nsc(N3CCC(N4CC[C@H](Oc5ccc(S(C)(=O)=O)cc5F)C4=O)CC3)n2)c1C [Example 75, (S)-3-(2-fluoro-4-(methylsulfonyl)phenoxy)-1-(1-(3-(1,3,4-trimethyl-1H-pyrazol-5-yloxy)-1,2,4-thiadiazol-5-yl)piperidin-4-yl)pyrrolidin-2-one] | 6.9 | 2.7
Cc1ncccc1Oc1nsc(N2CCC(N3CC[C@H](Oc4ccc(S(C)(=O)=O)cc4F)C3=O)CC2)n1 [Example 76, (S)-3-(2-fluoro-4-(methylsulfonyl)phenoxy)-1-(1-(3-(2-methylpyridin-3-yloxy)-1,2,4-thiadiazol-5-yl)piperidin-4-yl)pyrrolidin-2-one] | 5.7 | 2.5
CC(C)c1nsc(N2CCC(N3CCC(Oc4ccc(C(=O)NCCO)cc4F)C3=O)CC2)n1.Cl (stereo not shown) [Example 77, 3-Fluoro-N-(2-hydroxyethyl)-4-(1-(1-(3-isopropyl-1,2,4-thiadiazol-5-yl)piperidin-4-yl)-2-oxopyrrolidin-3-yloxy)benzamide hydrochloride] | 15.1 | 2.8
CC(C)c1nsc(N2CCC(N3CCC(Oc4ccc(C(=O)N(C)CCN(C)C)cc4F)C3=O)CC2)n1 (stereo not shown) [Example 78, N-(2-(dimethylamino)ethyl)-3-fluoro-4-(1-(1-(3-isopropyl-1,2,4-thiadiazol-5-yl)piperidin-4-yl)-2-oxopyrrolidin-3-yloxy)-N-methylbenzamide] | 5.0 | 1.6
CC(C)c1nsc(N2CCC(N3CCC(Oc4ccc(C(=O)N(C)CCO)cc4F)C3=O)CC2)n1 (stereo not shown) [Example 79, 3-fluoro-N-(2-hydroxyethyl)-4-(1-(1-(3 isopropyl-1,2,4-thiadiazol-5-yl)piperidin-4-yl)-2-oxopyrrolidin-3-yloxy)-N-methylbenzamide] | 19.0 | 3.2
CC(C)c1nsc(N2CCC(N3CCC(Oc4ccc(C(=O)N(C)CCN)cc4F)C3=O)CC2)n1 (stereo not shown) [Example 80, N-(2-aminoethyl)-3-fluoro-4-(1-(1-(3-isopropyl-1,2,4-thiadiazol-5-yl)piperidin-4-yl)-2-oxopyrrolidin-3-yloxy)-N-methylbenzamide] | 16.1 | 2.8
CC(C)c1nsc(N2CCC(N3CCC(Oc4ccc(C(=O)NCCN(C)C)cc4F)C3=O)CC2)n1 (stereo not shown) [Example 81, N-(2-(dimethylamino)ethyl)-3 fluoro-4-(1-(1-(3-isopropyl-1,2,4-thiadiazol-5-yl)piperidin-4-yl)-2-oxopyrrolidin-3-yloxy)benzamide] | 11.7 | 2.4
CC(C)c1nsc(N2CCC(N3CCC(Oc4ccc(-n5cnnn5)nc4)C3=O)CC2)n1 (stereo not shown) [Example 82, 3-(6-(1H-tetrazol-1-yl)pyridin-3-yloxy)-1-(1-(3-isopropyl-1,2,4-thiadiazol-5-yl)piperidin-4-yl)pyrrolidin-2-one] | 12.8 | 2.4
CC(C)c1nsc(N2CCC(N3CCC(Oc4ccc(-c5nnn(C)n5)cc4)C3=O)CC2)n1 (stereo not shown) [Example 83, 1-(1-(3-isopropyl-1,2,4-thiadiazol-5-yl)piperidin-4-yl)-3-(4-(2-methyl-2H-tetrazol-5-yl)phenoxy)pyrrolidin-2-one] | 14.9 | 2.5
CC(C)c1nsc(N2CCC(N3CCC(Oc4ccc(-n5cnnn5)cc4)C3=O)CC2)n1 (stereo not shown) [Example 84, 3-(4-(1H-tetrazol-1-yl)phenoxy)-1-(1-(3-isopropyl-1,2,4-thiadiazol-5-yl)piperidin-4-yl)pyrrolidin-2-one] | 18.8 | 4.2
CC(C)c1nsc(N2CCC(N3CCCC(Oc4cc(F)c(S(C)(=O)=O)cc4F)C3=O)CC2)n1 (stereo not shown) [Example 85, 3-(2,5-Difluoro-4-(methylsulfonyl)phenoxy)-1′-(3-isopropyl-1,2,4-thiadiazol-5-yl)-[1,4′-bipiperidin]-2-one] | 16.2 | 3.8
CS(=O)(=O)c1ccc(O[C@H]2CCN(C3CCN(c4nc(C(F)(F)F)ns4)CC3)C2=O)c(F)c1 [Example 86, (S)-3-(2-Fluoro-4-(methylsulfonyl)phenoxy)-1-(1-(3-(trifluoromethyl)-1,2,4-thiadiazol-5-yl)piperidin-4-yl)pyrrolidin-2-one] | 11.1 | 3.4
CS(=O)(=O)c1ccc(N[C@H]2CCCN(C3CCN(c4nc(C(F)(F)F)ns4)CC3)C2=O)c(F)c1 [Example 87, (S)-3-(2-fluoro-4-(methylsulfonyl)phenylamino)-1′-(3-(trifluoromethyl)-1,2,4-thiadiazol-5-yl)-[1,4′-bipiperidin]-2-one] | 13.6 | 2.1
CS(=O)(=O)c1cc(F)c(N[C@H]2CCN(C3CCN(c4nc(C(F)(F)F)ns4)CC3)C2=O)c(F)c1 [Example 88, (S)-3-(2,6-difluoro-4-(methylsulfonyl)phenylamino)-1-(1-(3-(trifluoromethyl)-1,2,4-thiadiazol-5-yl)piperidin-4-yl)pyrrolidin-2-one] | 11.8 | 3.0
